From EP1108710A1, “GUAIACOXYPROPANOLAMINES WITH ALPHA/BETA-ADRENERGIC BLOCKING ACTIVITY” (Cheng, Ing-Jun, priority 1998, dated 2000)

Columns and labels:
lung β 2-receptor = molecular target: T1, lung β 2-receptor (Rattus norvegicus, UniProt P10608); test: [3H]CGP-12177 receptor binding on lung membranes; parameters: species or system Wistar rat
T1 construct: The heart and lung of rat were removed and placed in cold Tris buffer; from tissue; host or cells: rat lung membranes
Procedure: (§1) The heart and lung of rat were removed and placed in cold Tris buffer. Then the atria and lung were separated and weighed, before placing in cold Tris buffer with volume 20X their weights. […] The centrifugal fluid was again centrifuged at 10,000 gm for 12 minutes. The second centrifugal fluid was centrifuged for the third time at 29,000 gm for 15 minutes. The pellet finally obtained was re-suspended in Tris buffer as little as possible. […] Finally, the protein concentration was diluted with Tris buffer to maintain 200∼250 µ g protein per 100 µ l.
(§2) After reaction, 1ml of cold Tris buffer was added to terminate the binding reaction.

atrial β 1-receptor = molecular target: T2, atrial β 1-receptor (Rattus norvegicus, UniProt P18090); test: [3H]CGP-12177 receptor binding on atrial membranes; parameters: species or system Wistar rat
T2 construct: The heart and lung of rat were removed and placed in cold Tris buffer; from tissue; host or cells: rat atrial membranes
T2 sequence (P18090 whole entry): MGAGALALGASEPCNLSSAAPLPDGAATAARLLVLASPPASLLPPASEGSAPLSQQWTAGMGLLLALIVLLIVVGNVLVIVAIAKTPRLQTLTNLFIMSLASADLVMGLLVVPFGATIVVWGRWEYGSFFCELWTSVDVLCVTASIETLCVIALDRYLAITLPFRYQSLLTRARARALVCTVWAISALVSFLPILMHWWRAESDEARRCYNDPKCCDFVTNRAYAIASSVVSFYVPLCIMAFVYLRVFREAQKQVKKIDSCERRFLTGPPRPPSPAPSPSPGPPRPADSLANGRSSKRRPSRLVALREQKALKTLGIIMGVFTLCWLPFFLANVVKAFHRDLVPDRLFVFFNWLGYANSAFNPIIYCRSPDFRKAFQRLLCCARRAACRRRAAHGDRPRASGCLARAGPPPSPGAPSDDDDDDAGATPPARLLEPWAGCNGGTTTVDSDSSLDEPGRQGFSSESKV
Procedure: as §1, §2

β-adrenoreceptor (β1) [1] = molecular target: T3, β-adrenoreceptor (β1) (Rattus norvegicus, UniProt P18090); test: β-adrenoceptor blocking action on electrically driven isolated left atrium (L-isoproterenol-induced contractility); parameters: species or system Wistar rat
T3 construct: The right and left atria were then separated; from tissue; host or cells: isolated rat right and left atria
T3 sequence (P18090 whole entry): as above
Procedure: The inspontaneously-beating left atrial tissue was obtained from rat's isolated right atrial tissue experiments. […] The contraction rate was 1Hz and the resting tension 0.5 gm. After 60 minutes of equilibration, the following experiments were performed: • (a) Completion of cumulative concentration-response curve: similar to experimental method on isolated right atrium; • (b)Calculation of pA2 value: similar to calculation method on isolated right atrium.

A7r5 cells = test: Fluorescence determination of intracellular calcium ion (fluo 3-AM, laser cytometer); format: cell-based; settings: 10^-8, 10^-7, and 10^-6M for 5 minutes
Procedure: The intensity of fluo 3-AM was measured by line scanning at 30second interval with an argon laser at […].

[2] = tested on: BayK8644 pretreated thoracic aorta; test: Isolated thoracic aorta pretreated with BayK8644, then contracted with concentrated potassium solution; parameters: species or system Wistar rat; settings: 0.1 µ M of BayK8644 for 10 minutes; 10^-8 to 10^-5 M compound
Procedure: The effect of compound 1 on the thoracic aorta contraction caused by 75mM KCl. The Wistar rat's isolated thoracic aorta was contraction induced by 75mM of concentrated Potassium solution. […] Furthermore, the contraction effects of 10^-8M of compound 1- 9 were indicated on Table 1. (b) The effect of compound 1 on BayK8644 pretreated thoracic aorta: 0.1 µ M of BayK8644 was first added into the tissue trough. 10 minutes later, 75mM of concentrated Potassium solution was added to induce thoracic aorta contraction. When vasoconstriction had reached stability, different concentrations of (10^-8, 10^-7, 10^-6, and 10^-5M) compound 1 were separately added.

β-adrenoreceptor (β1) [3] = molecular target: T3, β-adrenoreceptor (β1); test: β-adrenoceptor blocking action on isolated spontaneously beating right atrium (L-isoproterenol-induced heart rate increase, Schild plot); parameters: species or system Wistar rat
Procedure: The right and left atria were then separated. The spontaneously-beating right atria was clipped on both end by heart shaped clips, where one end was fixed at the bottom of 10ml of tissue bath made of physiological saline solution, and temperature maintained at 37°C. The other end of the atria was connected to a force transducer, and isometric contractions and beating rate of the right atria were recorded by COULBOURN AT-High-Speed VideoFigure. […] Cumulative administration interval was when the previous concentration reached its greatest effect, the next concentration would be immediately given.

normotensive rats = test: Heart rate and blood pressure in living (anaesthetized) rat, intravenous injection; format: in vivo, Wistar rats
Source text: Male Wistar rats, weighing 200 ∼ 300g were abdominal anaesthetized with pentobarbital sodium. Tracheal was cannulated to maintain normal respiration. Polyethylene tube was inserted into the left femoral vein to facilitate drug administration. A 3-way stopcock was used, with one end connected to a syringe for drug injection, while the other end was connected to the syringe filled with physiological saline. The latter was used to prevent residual drugs in the polyethylene tube after injection, which would affect experimental accuracy.
The right femoral artery was also inserted with polyethylene, and a 3-way stopcock was used tool, where one end was connected to heparin solution to prevent embolism. The other end was connected to a Disposable Diaphragm Dome, TA1019, and linked to a transducer. Through an amplifier, a recorder recorded the overall and average arterial pressure; heart rate to evaluate the effect of drug on blood pressure and heart rate.

[4] = tested on: Wistar rat's isolated; reserpine pretreated right atrium beating rate and left atrium isometric contractions; test: Direct effect (intrinsic sympathomimetic activity) on reserpine-pretreated isolated atria
Procedure: Pharmacol 311, pp. 205-218 and pp 237-248 (1980). Wistar rats of weight between 200 ∼ 300 gm were used. 18 ∼ 24 hours before the experiment, 5mg/kg of reserpine was injected via abdominal cavity to remove all endogenous catecholamines. Prior experiment, Wistar rats were sacrificed, the heart was immediately removed and placed in Kreb's solution aerated with air mixture and maintained at room temperature. The right and left atria were carefully separated.

[5] = tested on: guinea pig's isolated; reserpine pretreated tracheal; test: Direct effect (tracheal relaxation, intrinsic sympathomimetic activity) on reserpine-pretreated isolated trachea, with and without ICI 118,551
Procedure: Pharmacol 311, pp. 205-218 and pp.237-248 (1980). guinea pigs of weight between 350 ∼ 500 gm were used. 18 ∼ 24 hours before the experiment, 5mg/kg of reserpine was injected via abdominal cavity to remove all endogenous catecholamines. Prior experiment, guinea pigs were sacrificed, the tracheal was immediately removed and placed in Kreb's solution aerated with air mixture and maintained at room temperature of 22 ∼ 25°C. […] […] Then the tissue was repeatedly washed with Kreb's solution. After the tissue had been re-equilibrated for 60 minutes, ICI 118, 551 were administed. After treatment for 30 minutes, compound 1 of similar concentration was administered, and the intrinsic sympathomimetic activity of tracheal was observed.

β2-adrenoceptor = molecular target: T4, β2-adrenoceptor (Cavia porcellus, UniProt Q8K4Z4); test: β-adrenoceptor blocking action on isolated trachea contracted with carbachol (L-isoproterenol relaxation); parameters: species or system guinea pig
T4 construct: a portion of tracheal approximately 4 cm long was removed; from tissue; host or cells: isolated guinea pig trachea (reserpine-pretreated animals)
T4 sequence (Q8K4Z4 whole entry): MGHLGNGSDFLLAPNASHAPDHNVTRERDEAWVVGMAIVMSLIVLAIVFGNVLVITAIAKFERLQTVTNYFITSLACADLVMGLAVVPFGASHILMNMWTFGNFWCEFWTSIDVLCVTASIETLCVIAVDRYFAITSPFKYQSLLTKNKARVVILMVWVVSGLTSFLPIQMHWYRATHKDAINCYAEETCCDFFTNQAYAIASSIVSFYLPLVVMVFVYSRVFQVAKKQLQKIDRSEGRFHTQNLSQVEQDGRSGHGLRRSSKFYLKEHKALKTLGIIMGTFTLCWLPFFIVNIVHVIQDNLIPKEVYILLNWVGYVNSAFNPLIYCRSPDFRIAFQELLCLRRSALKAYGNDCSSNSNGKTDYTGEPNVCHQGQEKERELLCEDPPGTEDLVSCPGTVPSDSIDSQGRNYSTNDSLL
Procedure: Guinea pigs of weight between 300 ∼500 gm were used. […] After the guinea pigs were sacrificed, a slit was made along the neck, and a portion of tracheal approximately 4 cm long was removed. […] The two ends of the tracheal were clamped with frog-heart shaped clamps, one end was fixed at the bottom of tissue bath filled with 20 ml of Kreb's solution, maintained at 37°C, while the other end was connected to a force transducer. Through a COULBOURN AT-High-Speed Videograph, long isometric contractions were recorded. […] Then the tracheal was repeatedly washed with Kreb's solution for 20 minutes and 10^-6 M of carbochol was added to cause contraction in the guinea pig's tracheal. When the contraction reached the maximum, every division of tracheal was used to complete two concentration response curve of L-isoproternol, one of them without administration of test compound and used as control; while the other curve was administered with compound 1 for 30 minutes before concentration response curve was completed. This is the test group. • (b) Calculation of pA2: similar to the calculation method for isolated right atrium experiment.

[6] = tested on: Wistar rat's isolated thoracic aorta; test: Isolated thoracic aorta contraction caused by 75mM KCl; settings: 10^-8M; thoracic aorta contraction caused by 75mM KCl
Procedure: After sacrificing Wistar rat of weight between 300 - 500 gm, the thoracic aorta was immediately removed and placed in cold Kreb's solution. The fatty connecting tissue surrounding the vessel wall was removed and the thoracic aorta was cut into rings of length 5 mm. The two ends of each ring was pieced and fixed with "Z" shaped platinum wires. […] When the results had been recorded for at least 35 minutes, the aorta was repeatedly rinsed with normal Kreb's solution. […] 30 minutes later, 75mM KCl was added again to induce vasoconstriction.

T1 sequence (P10608 whole entry): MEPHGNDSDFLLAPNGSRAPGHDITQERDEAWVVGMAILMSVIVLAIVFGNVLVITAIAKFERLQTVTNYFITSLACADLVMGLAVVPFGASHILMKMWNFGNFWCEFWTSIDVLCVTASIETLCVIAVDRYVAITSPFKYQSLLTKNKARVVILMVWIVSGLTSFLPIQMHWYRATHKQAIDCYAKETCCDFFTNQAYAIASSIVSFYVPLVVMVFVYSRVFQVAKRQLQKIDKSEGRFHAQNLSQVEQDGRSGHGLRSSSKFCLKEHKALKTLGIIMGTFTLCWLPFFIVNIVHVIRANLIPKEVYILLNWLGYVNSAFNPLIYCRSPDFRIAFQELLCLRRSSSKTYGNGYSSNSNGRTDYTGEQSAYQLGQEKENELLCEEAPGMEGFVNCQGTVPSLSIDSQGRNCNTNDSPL

COC(=O)C1=C(C)NC(C)=C(C(=O)OC)C1c1ccc(OCC(O)CNC(C)(C)C)c(OC)c1 (stereo not shown) [compound 1]
Ki (lung β 2-receptor): 631 nM | Ki (atrial β 1-receptor): 245 nM | blocking of heart contractility increment effect of L-isoproterenol (β-adrenoreceptor (β1) [1]; isolated left atrium, three concentrations of compound): could competitively block the heart contractility increment effect of L-isoproterenol | pA2 value (β-adrenoreceptor (β1) [1]; left atrium contractility, against L-isoproterenol): 6.91±0.26 | calcium ion influx effect of KCl ([Ca^2+]i) (A7r5 cells; 50mM KCl): significantly blocked | calcium ion influx effect of BayK8644 ([Ca^2+]i) (A7r5 cells; 10 µ M BayK8644): significantly blocked | effect of BayK8644 pre-treatment on the compound's vascular effect [2]: pre-treatment with BayK8644 would affect vasoconstriction function | selectivity ratio of β1 type adrenoceptor (effect on right atrium relative to tracheal) (β-adrenoreceptor (β1) [3]; from the average pA2 difference between right atrium and tracheal): 1.32 X | pA2 value (β-adrenoreceptor (β1) [3]; isolated right atrium, against L-isoproterenol): 7.21±0.32 | blocking of heart rate increment effect of L-isoproterenol (β-adrenoreceptor (β1) [3]; isolated right atrium, three concentrations of compound): could competitively block the heart rate increment effect of L-isoproterenol | effect on blood pressure and heart rate (normotensive rats; intravenous injection of 0.5 mg/kg): a decrease in heart rate was shown | effect on blood pressure and heart rate (normotensive rats; intravenous injection, 0.1, 0.25, 0.5, 1.0, 2.0 mg/kg, normotensive rats): continuous dose-dependent blood pressure lowering effect without increasing heart rate | duration of blood pressure lowering effect (normotensive rats; intravenous injection, normotensive rats): approximately 1 hour | Lowering of Blood Pressure (normotensive rats; lmg/kg, via femoral vein, rats): 70± 3 mm Hg | Reduction of Heart Rate (normotensive rats; lmg/kg, via femoral vein, rats): 30± 2 beats/min | direct effect on right atrium beating rate and left atrium isometric contractions ([4]; cumulative administration, reserpine pretreated): could not increase the beating rate and isometric contractions | concentration with blocking effect on beating rate and isometric contractions ([4]; reserpine pretreated atria): ≥ 10^-5 M | tracheal relaxation effect after pretreatment with ICI 118, 551 [5]: concentration-dependently shifting parallel to the right | tracheal relaxation effect ([5]; cumulative administration 10^-10∼3x10^-6 M, reserpine pretreated): dose-dependant tracheal relaxation effect | pA2 value (β2-adrenoceptor; guinea pig's isolated tracheal, against L-isoproterenol): 7.09±0.54 | blocking of tracheal relaxation effect of L-isoproterenol (β2-adrenoceptor; trachea contracted with 10^-6 M CARBACHOL): could competitively block the effect of L-isoproterenol | Aorta Relaxation [6]: 30± 3%
